Tested on: NCI-H929 complex spheroids, viability % test/control
Assay: Anticancer human tumor NCI-H929 cell line growth inhibition [RAS];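 also: compound exposure lasted seven days before viability was read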;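 as to viability, T/C: 100% = DMSO vehicle control viability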
Settings: for IC50: curve of first compound; for viability, T/C: stronger effect = lower value
Summary of the method: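 Agents were tested in combination matrices in half-log decrements from a top concentration at or near clinical Cmax (10 microM if undetermined). Targets were multi-cell spheroids of tumour lines plus HUVEC and MSC stromal cells.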

SMILES: CCc1c2c(nc3ccc(O)cc13)-c1cc3c(c(=O)n1C2)COC(=O)[C@]3(O)CC + C#Cc1c(F)ccc2cc(O)cc(-c3ncc4c(N5CC6CCC(C5)N6)nc(OCC56CCCN5CC(F)C6)nc4c3F)c12
- IC50 (second compound 0.0316 µM): 1.88 nM
- IC50 (second compound 0.1 µM): 1.97 nM
- IC50 (second compound 0.316 µM): 1.83 nM
- IC50 (second compound 1 µM): 1.85 nM
- IC50 (second compound 3.16 µM): 1.83 nM
- IC50 (second compound 10 µM): 1.7 nM
- viability, T/C (second compound 0.0316 µM, first compound 0.000949 µM): 107%
- viability, T/C (second compound 0.0316 µM, first compound 0.003 µM): 11.1%
- viability, T/C (second compound 0.0316 µM, first compound 0.00949 µM): 1.08%
- viability, T/C (second compound 0.0316 µM, first compound 0.03 µM): 1.06%
- viability, T/C (second compound 0.0316 µM, first compound 0.0949 µM): 2.09%
- viability, T/C (second compound 0.0316 µM, first compound 0.3 µM): 1.3%
- viability, T/C (second compound 0.1 µM, first compound 0.000949 µM): 103%
- viability, T/C (second compound 0.1 µM, first compound 0.003 µM): 19%
- viability, T/C (second compound 0.1 µM, first compound 0.00949 µM): 1.39%
- viability, T/C (second compound 0.1 µM, first compound 0.03 µM): 3.06%
- viability, T/C (second compound 0.1 µM, first compound 0.0949 µM): 2.48%
- viability, T/C (second compound 0.1 µM, first compound 0.3 µM): 0.71%
- viability, T/C (second compound 0.316 µM, first compound 0.000949 µM): 103%
- viability, T/C (second compound 0.316 µM, first compound 0.003 µM): 10.5%
- viability, T/C (second compound 0.316 µM, first compound 0.00949 µM): 1.36%
- viability, T/C (second compound 0.316 µM, first compound 0.03 µM): 2.4%
- viability, T/C (second compound 0.316 µM, first compound 0.0949 µM): 1.35%
- viability, T/C (second compound 0.316 µM, first compound 0.3 µM): 1.02%
- viability, T/C (second compound 1 µM, first compound 0.000949 µM): 104%
- viability, T/C (second compound 1 µM, first compound 0.003 µM): 11.1%
- viability, T/C (second compound 1 µM, first compound 0.00949 µM): 1.18%
- viability, T/C (second compound 1 µM, first compound 0.03 µM): 1.37%
- viability, T/C (second compound 1 µM, first compound 0.0949 µM): 0.94%
- viability, T/C (second compound 1 µM, first compound 0.3 µM): 0.76%
- viability, T/C (second compound 3.16 µM, first compound 0.000949 µM): 104%
- viability, T/C (second compound 3.16 µM, first compound 0.003 µM): 9.19%
- viability, T/C (second compound 3.16 µM, first compound 0.00949 µM): 2.65%
- viability, T/C (second compound 3.16 µM, first compound 0.03 µM): 1.69%
- viability, T/C (second compound 3.16 µM, first compound 0.0949 µM): 1.26%
- viability, T/C (second compound 3.16 µM, first compound 0.3 µM): 0.49%
- viability, T/C (second compound 10 µM, first compound 0.000949 µM): 92%
- viability, T/C (second compound 10 µM, first compound 0.003 µM): 9.27%
- viability, T/C (second compound 10 µM, first compound 0.00949 µM): 1.7%
- viability, T/C (second compound 10 µM, first compound 0.03 µM): 1.05%
- viability, T/C (second compound 10 µM, first compound 0.0949 µM): 1.19%
- viability, T/C (second compound 10 µM, first compound 0.3 µM): 0.41%

SMILES: CCC(CC)c1cc(NC2CCC(N)C2)n2nccc2n1 (stereo unspecified) + C#Cc1c(F)ccc2cc(O)cc(-c3ncc4c(N5CC6CCC(C5)N6)nc(OCC56CCCN5CC(F)C6)nc4c3F)c12
- IC50 (second compound 0.0316 µM): 1790 nM
- IC50 (second compound 0.1 µM): 1800 nM
- IC50 (second compound 0.316 µM): 1790 nM
- IC50 (second compound 1 µM): 1780 nM
- IC50 (second compound 3.16 µM): 1790 nM
- IC50 (second compound 10 µM): 1820 nM
- viability, T/C (second compound 0.0316 µM, first compound 0.0316 µM): 95.1%
- viability, T/C (second compound 0.0316 µM, first compound 0.1 µM): 95.2%
- viability, T/C (second compound 0.0316 µM, first compound 0.316 µM): 101%
- viability, T/C (second compound 0.0316 µM, first compound 1 µM): 109%
- viability, T/C (second compound 0.0316 µM, first compound 3.16 µM): 1.07%
- viability, T/C (second compound 0.0316 µM, first compound 10 µM): 0.31%
- viability, T/C (second compound 0.1 µM, first compound 0.0316 µM): 97.2%
- viability, T/C (second compound 0.1 µM, first compound 0.1 µM): 97.7%
- viability, T/C (second compound 0.1 µM, first compound 0.316 µM): 99.7%
- viability, T/C (second compound 0.1 µM, first compound 1 µM): 110%
- viability, T/C (second compound 0.1 µM, first compound 3.16 µM): 1.11%
- viability, T/C (second compound 0.1 µM, first compound 10 µM): 0.27%
- viability, T/C (second compound 0.316 µM, first compound 0.0316 µM): 95.4%
- viability, T/C (second compound 0.316 µM, first compound 0.1 µM): 98.1%
- viability, T/C (second compound 0.316 µM, first compound 0.316 µM): 97.6%
- viability, T/C (second compound 0.316 µM, first compound 1 µM): 113%
- viability, T/C (second compound 0.316 µM, first compound 3.16 µM): 0.58%
- viability, T/C (second compound 0.316 µM, first compound 10 µM): 0.23%
- viability, T/C (second compound 1 µM, first compound 0.0316 µM): 93.8%
- viability, T/C (second compound 1 µM, first compound 0.1 µM): 95.7%
- viability, T/C (second compound 1 µM, first compound 0.316 µM): 99.7%
- viability, T/C (second compound 1 µM, first compound 1 µM): 111%
- viability, T/C (second compound 1 µM, first compound 3.16 µM): 0.22%
- viability, T/C (second compound 1 µM, first compound 10 µM): 0.66%
- viability, T/C (second compound 3.16 µM, first compound 0.0316 µM): 94.1%
- viability, T/C (second compound 3.16 µM, first compound 0.1 µM): 98%
- viability, T/C (second compound 3.16 µM, first compound 0.316 µM): 96.4%
- viability, T/C (second compound 3.16 µM, first compound 1 µM): 113%
- viability, T/C (second compound 3.16 µM, first compound 3.16 µM): 1.09%
- viability, T/C (second compound 3.16 µM, first compound 10 µM): 0.81%
- viability, T/C (second compound 10 µM, first compound 0.0316 µM): 102%
- viability, T/C (second compound 10 µM, first compound 0.1 µM): 101%
- viability, T/C (second compound 10 µM, first compound 0.316 µM): 99.1%
- viability, T/C (second compound 10 µM, first compound 1 µM): 111%
- viability, T/C (second compound 10 µM, first compound 3.16 µM): 0.7%
- viability, T/C (second compound 10 µM, first compound 10 µM): 0.12%

SMILES: CCN1CCN(Cc2ccc(Nc3ncc(F)c(-c4cc(F)c5nc(C)n(C(C)C)c5c4)n3)nc2)CC1 + CCn1c(-c2cc(N3CCN(C)CC3)cnc2C(C)OC)c2c3cc(ccc31)-c1csc(n1)CC(NC(=O)C1CC1C)C(=O)N1CCCC(N1)C(=O)OCC(C)(C)C2
- IC50 (second compound 0.000949 µM): 789 nM
- IC50 (second compound 0.003 µM): 725 nM
- IC50 (second compound 0.00949 µM): 642 nM
- IC50 (second compound 0.03 µM): 134 nM
- IC50 (second compound 0.0949 µM): < 3.16 nM
- IC50 (second compound 0.3 µM): < 3.16 nM
- viability, T/C (second compound 0.000949 µM, first compound 0.00316 µM): 104%
- viability, T/C (second compound 0.000949 µM, first compound 0.01 µM): 98.4%
- viability, T/C (second compound 0.000949 µM, first compound 0.0316 µM): 110%
- viability, T/C (second compound 0.000949 µM, first compound 0.1 µM): 107%
- viability, T/C (second compound 0.000949 µM, first compound 0.316 µM): 114%
- viability, T/C (second compound 0.000949 µM, first compound 1 µM): 35.1%
- viability, T/C (second compound 0.003 µM, first compound 0.00316 µM): 98.3%
- viability, T/C (second compound 0.003 µM, first compound 0.01 µM): 105%
- viability, T/C (second compound 0.003 µM, first compound 0.0316 µM): 108%
- viability, T/C (second compound 0.003 µM, first compound 0.1 µM): 113%
- viability, T/C (second compound 0.003 µM, first compound 0.316 µM): 114%
- viability, T/C (second compound 0.003 µM, first compound 1 µM): 27.8%
- viability, T/C (second compound 0.00949 µM, first compound 0.00316 µM): 109%
- viability, T/C (second compound 0.00949 µM, first compound 0.01 µM): 116%
- viability, T/C (second compound 0.00949 µM, first compound 0.0316 µM): 120%
- viability, T/C (second compound 0.00949 µM, first compound 0.1 µM): 125%
- viability, T/C (second compound 0.00949 µM, first compound 0.316 µM): 122%
- viability, T/C (second compound 0.00949 µM, first compound 1 µM): 7.19%
- viability, T/C (second compound 0.03 µM, first compound 0.00316 µM): 81.7%
- viability, T/C (second compound 0.03 µM, first compound 0.01 µM): 80.5%
- viability, T/C (second compound 0.03 µM, first compound 0.0316 µM): 76.6%
- viability, T/C (second compound 0.03 µM, first compound 0.1 µM): 55.4%
- viability, T/C (second compound 0.03 µM, first compound 0.316 µM): 29.2%
- viability, T/C (second compound 0.03 µM, first compound 1 µM): 1.2%
- viability, T/C (second compound 0.0949 µM, first compound 0.00316 µM): 9.23%
- viability, T/C (second compound 0.0949 µM, first compound 0.01 µM): 8.26%
- viability, T/C (second compound 0.0949 µM, first compound 0.0316 µM): 6.56%
- viability, T/C (second compound 0.0949 µM, first compound 0.1 µM): 4.66%
- viability, T/C (second compound 0.0949 µM, first compound 0.316 µM): 2.4%
- viability, T/C (second compound 0.0949 µM, first compound 1 µM): 0.89%
- viability, T/C (second compound 0.3 µM, first compound 0.00316 µM): 4.35%
- viability, T/C (second compound 0.3 µM, first compound 0.01 µM): 4.24%
- viability, T/C (second compound 0.3 µM, first compound 0.0316 µM): 2.73%
- viability, T/C (second compound 0.3 µM, first compound 0.1 µM): 2.03%
- viability, T/C (second compound 0.3 µM, first compound 0.316 µM): 1.42%
- viability, T/C (second compound 0.3 µM, first compound 1 µM): 0.89%

From PubChem BioAssay AID2060884 (Molecular Pharmacology Branch, DTP, NCI, 2025)
